Assay results reported in US20260216180A1, “QUINOLINE DERIVATIVE COMPOUNDS OR PHARMACEUTICALLY ACCEPTABLE SALT THEREOF, PREPARATION METHOD THEREFOR AND USE THEREOF” (JIANGSU CAREPHAR PHARMACEUTICAL CO.,LTD., priority 2023, published 2026).

Tests used:
[1] = molecular target: T1, CYP2C9 (Homo sapiens, UniProt P11712); experiment: CYP enzyme inhibition, human liver microsomes, CYP2C9; assay type: in vitro ADME; settings: probe substrate Diclofenac, read-out: IC50 CYP 2C9
T1 construct: Commercially available mixed human liver microsomes were used; from tissue; host or cells: pooled human liver microsomes
T1 sequence (P11712 whole entry): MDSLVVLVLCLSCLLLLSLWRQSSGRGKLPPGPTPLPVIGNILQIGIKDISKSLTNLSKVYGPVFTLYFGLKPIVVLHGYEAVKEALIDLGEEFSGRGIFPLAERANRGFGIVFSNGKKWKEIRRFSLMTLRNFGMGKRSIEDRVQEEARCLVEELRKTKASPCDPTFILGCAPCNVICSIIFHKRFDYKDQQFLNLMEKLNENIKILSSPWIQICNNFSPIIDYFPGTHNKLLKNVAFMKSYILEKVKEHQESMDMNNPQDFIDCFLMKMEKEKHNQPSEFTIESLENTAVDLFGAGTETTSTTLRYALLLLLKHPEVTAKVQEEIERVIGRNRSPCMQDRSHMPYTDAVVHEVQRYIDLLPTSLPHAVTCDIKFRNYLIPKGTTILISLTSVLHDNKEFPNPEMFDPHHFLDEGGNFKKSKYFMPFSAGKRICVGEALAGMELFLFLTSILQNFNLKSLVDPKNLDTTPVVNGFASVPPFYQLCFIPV
Description: (§1) Commercially available mixed human liver microsomes were used, with the liver microsome concentrations of diclofenac, dextromethorphan, and midazolam being 0.1 mg/mL; and the liver microsome concentrations of phenacetin, bupropion, amodiaquine, mephenytoin, and testosterone being 0.2 mg/mL. Probe substrate, specific inhibitor and test compound (ABX464, compound 18) were diluted to the corresponding concentration of working solution for use. A mixed solution containing liver microsomes, MgCl2, substrate, […] inhibitor, and the test compound was prepared. After the incubation, 600 μL of ice-cold ACN working solution containing IS was added to terminate the reaction, and the mixture was centrifuged and used for LC-MS/MS detection. [table] At different concentrations of the test compound or positive inhibitor, the percentage of remaining activity is determined by the ratio of the amount of characteristic metabolites of the probe substrate generated to the corresponding amount generated in the absence of the test compound or positive inhibitor. […]

[2] = molecular target: T2, CYP1A2 (Homo sapiens, UniProt P05177); experiment: CYP enzyme inhibition, human liver microsomes, CYP1A2; assay type: in vitro ADME; settings: probe substrate Phenacetin; for IC50: read-out: IC50 CYP 1A2
T2 construct: Commercially available mixed human liver microsomes were used; from tissue; host or cells: pooled human liver microsomes
T2 sequence (P05177 1-516): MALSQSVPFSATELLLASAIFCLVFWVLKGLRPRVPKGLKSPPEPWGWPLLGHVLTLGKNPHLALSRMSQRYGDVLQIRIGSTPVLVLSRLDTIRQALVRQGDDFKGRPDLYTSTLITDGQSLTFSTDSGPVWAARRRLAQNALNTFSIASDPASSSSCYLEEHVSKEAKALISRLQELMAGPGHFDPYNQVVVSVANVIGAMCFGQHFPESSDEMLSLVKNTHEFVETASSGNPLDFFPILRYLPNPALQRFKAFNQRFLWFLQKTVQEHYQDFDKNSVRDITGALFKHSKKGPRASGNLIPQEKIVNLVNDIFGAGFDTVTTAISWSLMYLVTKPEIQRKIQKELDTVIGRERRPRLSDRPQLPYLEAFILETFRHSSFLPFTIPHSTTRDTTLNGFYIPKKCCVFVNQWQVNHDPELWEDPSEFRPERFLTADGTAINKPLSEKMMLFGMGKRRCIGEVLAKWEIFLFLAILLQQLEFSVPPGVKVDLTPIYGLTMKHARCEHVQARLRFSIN
Description: Commercially available mixed human liver microsomes were used, with the liver microsome concentrations of diclofenac, dextromethorphan, and midazolam being 0.1 mg/mL; and the liver microsome concentrations of phenacetin, bupropion, amodiaquine, mephenytoin, and testosterone being 0.2 mg/mL. Probe substrate, specific inhibitor and test compound (ABX464, compound 18) were diluted to the corresponding concentration of working solution for use. A mixed solution containing liver microsomes, MgCl2, substrate, […] inhibitor, and the test compound was prepared. After the incubation, 600 μL of ice-cold ACN working solution containing IS was added to terminate the reaction, and the mixture was centrifuged and used for LC-MS/MS detection. [table] At different concentrations of the test compound or positive inhibitor, the percentage of remaining activity is determined by the ratio of the amount of characteristic metabolites of the probe substrate generated to the corresponding amount generated in the absence of the test compound or positive inhibitor. If a significant decrease in the amount of metabolite production is found at the highest concentration setting point, the half inhibitory concentration (IC50) will be calculated using the log(inhibitor) vs. response—Variable slope formula of GraphPad Prism software: Y=Bottom+(Top−Bottom)/(1+10^((Log IC50−X)*Hillslope)) • X: Log (test compound or positive inhibitor concentration); • Y: Remaining activity percentage; • Top and Bottom: refer to the theoretical maximum and minimum remaining activity percentages respectively; and • Hillslope: slope coefficient or slope. If there is no significant decrease in metabolite production at the highest concentration setting point (percentage of enzyme remaining activity […]), the half inhibitory concentration (IC50) cannot be accurately calculated, and the reported IC50 is greater than the highest concentration tested.

[3] = tested on: IL-6; experiment: Macrophage IL-6 secretion after LPS (ELISA); assay type: cell-based; settings: Bone marrow macrophage, compared to 0 μM, mouse bone marrow macrophages, 200 ng/ml LPS, 6 hours, read-out: Inhibition rate of IL-6 at 10 μM concentration
Description: Pharmacological Activity Test: Regulatory Effect of Quinoline Derivatives on Macrophage IL-6 and TNF-α Secretion
Mouse bone marrow cells were isolated from the femur and tibia bone marrow of […] mice of 6-8 week old raised under SPF conditions and inoculated in 6-well plates at a density of 1.5*10^6 cells/well/2 mL. 50 ng/mL M-CSF was added to each well and the cells were cultured in a CO2 incubator for 3 days. On the third day, the culture medium was replaced with fresh medium containing 100 ng/mL M-CSF and the culture was continued for 3 days. On the 6th day, the supernatant was removed and the cells were washed once with DPBS. After adding 1 mL of DPBS, the macrophages were harvested using a cell scraper, centrifuged at 400 g for 10 min, and the supernatant was discarded. The cells were resuspended in fresh culture medium containing 50 ng/mL M-CSF, inoculated in a 96-well plate at a density of 2*10^4 cells/well/200 μL, and cultured in a CO2 incubator overnight. 0, 3, 5, […] of the test compound were added to each well (wherein well 0 contains 0.1% DMSO) respectively and incubate in a CO2 incubator for 1 hour. Then 200 ng/ml LPS was added and the cell supernatant was collected after 6 hours of co-culture. ELISA kits were used to detect the secretion levels of IL-6 and TNF-α.

[4] = molecular target: T3, CYP2B6 (Homo sapiens, UniProt P20813); experiment: CYP enzyme inhibition, human liver microsomes, CYP2B6; assay type: in vitro ADME; settings: probe substrate Bupropion, read-out: IC50 CYP 2B6
T3 construct: Commercially available mixed human liver microsomes were used; from tissue; host or cells: pooled human liver microsomes
T3 sequence (P20813 1-491): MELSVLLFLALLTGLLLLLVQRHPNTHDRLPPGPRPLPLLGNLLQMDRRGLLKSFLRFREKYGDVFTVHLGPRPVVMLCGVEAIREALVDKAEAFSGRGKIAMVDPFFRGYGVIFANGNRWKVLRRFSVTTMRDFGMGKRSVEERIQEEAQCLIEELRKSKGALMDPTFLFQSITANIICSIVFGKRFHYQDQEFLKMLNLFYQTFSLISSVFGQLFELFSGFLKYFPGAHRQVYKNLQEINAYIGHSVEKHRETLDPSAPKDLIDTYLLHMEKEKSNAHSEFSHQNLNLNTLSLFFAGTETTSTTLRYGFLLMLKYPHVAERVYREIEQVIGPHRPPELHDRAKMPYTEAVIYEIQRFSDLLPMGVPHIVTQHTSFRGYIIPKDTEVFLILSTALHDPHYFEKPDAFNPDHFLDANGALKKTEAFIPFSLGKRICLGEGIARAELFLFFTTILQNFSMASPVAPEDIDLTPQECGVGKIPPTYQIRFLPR
Description: as §1

Compound	IC50 [1]	IC50 [2]	inhibition at 10 µM [3]	IC50 [4]	IC50 CYP 1A2 [2]
FC(F)(F)Oc1ccc(Nc2ccc3cccc(Cl)c3n2)cc1 [ABX464, reference compound]	15.1 µM	0.097 µM	61%	86.7 µM	
Fc1cc(Cl)c2nc(Nc3ccc(C4(C(F)(F)F)CC4)cc3)ccc2c1 [Compound 18, 8-chloro-6-fluoro-N-(4-(1-(trifluoromethyl)cyclopropyl)phenyl)quinolin-2-amine]	20.2 µM	21.6 µM	88%	> 100 µM	significantly superior to ABX464
